PubChem BioAssay AID2060486 (Molecular Pharmacology Branch, DTP, NCI, 2025)

Test system: IGROV1 complex spheroids (HUVEC, MSC), viability % test/control
Test: Anticancer human tumor IGROV1 cell line growth inhibition [GQUAD];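 further: spheroids exposed to compounds for 7 days before readout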;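 on viability, T/C: 100% = DMSO vehicle control viability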
Conditions: for IC50: curve of first compound; for viability, T/C: stronger effect = lower value
Outline: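 Multi-cell-type spheroids of tumor cells with HUVEC and mesenchymal stem cells, treated with drug combinations. Concentrations descend in half-log steps from near clinical Cmax, or from 10 microM where Cmax is unknown; viability read-out.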

[1] = second compound 0.0316 µM, first compound 0.0316 µM
[2] = second compound 0.0316 µM, first compound 0.1 µM
[3] = second compound 0.0316 µM, first compound 0.316 µM
[4] = second compound 0.0316 µM, first compound 1 µM
[5] = second compound 0.0316 µM, first compound 3.16 µM
[6] = second compound 0.0316 µM, first compound 10 µM
[7] = second compound 0.1 µM, first compound 0.0316 µM
[8] = second compound 0.1 µM, first compound 0.1 µM
[9] = second compound 0.1 µM, first compound 0.316 µM
[10] = second compound 0.1 µM, first compound 1 µM
[11] = second compound 0.1 µM, first compound 3.16 µM
[12] = second compound 0.1 µM, first compound 10 µM
[13] = second compound 0.316 µM, first compound 0.0316 µM
[14] = second compound 0.316 µM, first compound 0.1 µM
[15] = second compound 0.316 µM, first compound 0.316 µM
[16] = second compound 0.316 µM, first compound 1 µM
[17] = second compound 0.316 µM, first compound 3.16 µM
[18] = second compound 0.316 µM, first compound 10 µM
[19] = second compound 1 µM, first compound 0.0316 µM
[20] = second compound 1 µM, first compound 0.1 µM
[21] = second compound 1 µM, first compound 0.316 µM
[22] = second compound 1 µM, first compound 1 µM
[23] = second compound 1 µM, first compound 3.16 µM
[24] = second compound 1 µM, first compound 10 µM
[25] = second compound 3.16 µM, first compound 0.0316 µM
[26] = second compound 3.16 µM, first compound 0.1 µM
[27] = second compound 3.16 µM, first compound 0.316 µM
[28] = second compound 3.16 µM, first compound 1 µM
[29] = second compound 3.16 µM, first compound 3.16 µM
[30] = second compound 3.16 µM, first compound 10 µM
[31] = second compound 10 µM, first compound 0.0316 µM
[32] = second compound 10 µM, first compound 0.1 µM
[33] = second compound 10 µM, first compound 0.316 µM
[34] = second compound 10 µM, first compound 1 µM
[35] = second compound 10 µM, first compound 3.16 µM
[36] = second compound 10 µM, first compound 10 µM

CC(C)(O)C1CCC(Nc2ccc3ncc(-c4cccc(C(F)(F)F)c4)n3n2)CC1 (centres undefined) + CN(C)c1ccc(Nc2c3ccc(NC(=O)CCN4CCCC4)cc3nc3cc(NC(=O)CCN4CCCC4)ccc23)cc1
IC50 (second compound 0.0316 µM): 2180 nM
IC50 (second compound 0.1 µM): 2240 nM
IC50 (second compound 0.316 µM): 1420 nM
IC50 (second compound 1 µM): 1750 nM
IC50 (second compound 3.16 µM): 1370 nM
IC50 (second compound 10 µM): 134 nM
viability, T/C [1]: 103%
viability, T/C [2]: 83.8%
viability, T/C [3]: 74.8%
viability, T/C [4]: 74%
viability, T/C [5]: 32.3%
viability, T/C [6]: 35.5%
viability, T/C [7]: 101%
viability, T/C [8]: 91.8%
viability, T/C [9]: 70.6%
viability, T/C [10]: 70.1%
viability, T/C [11]: 36.7%
viability, T/C [12]: 39.5%
viability, T/C [13]: 93.7%
viability, T/C [14]: 63.9%
viability, T/C [15]: 85.9%
viability, T/C [16]: 58%
viability, T/C [17]: 30.1%
viability, T/C [18]: 33.2%
viability, T/C [19]: 86.6%
viability, T/C [20]: 92.6%
viability, T/C [21]: 78.8%
viability, T/C [22]: 72.3%
viability, T/C [23]: 26.2%
viability, T/C [24]: 23%
viability, T/C [25]: 77%
viability, T/C [26]: 81.9%
viability, T/C [27]: 78.2%
viability, T/C [28]: 61.9%
viability, T/C [29]: 18.6%
viability, T/C [30]: 9.94%
viability, T/C [31]: 60.9%
viability, T/C [32]: 54.3%
viability, T/C [33]: 37.5%
viability, T/C [34]: 25.9%
viability, T/C [35]: 5.34%
viability, T/C [36]: 2.55%

CCCS(=O)(=O)Nc1ccc(F)c(C(=O)c2c[nH]c3ncc(-c4ccc(Cl)cc4)cc23)c1F + CN(C)c1ccc(Nc2c3ccc(NC(=O)CCN4CCCC4)cc3nc3cc(NC(=O)CCN4CCCC4)ccc23)cc1
IC50 (second compound 0.0316 µM): 5670 nM
IC50 (second compound 0.1 µM): 5610 nM
IC50 (second compound 0.316 µM): 5390 nM
IC50 (second compound 1 µM): 5190 nM
IC50 (second compound 3.16 µM): 4480 nM
IC50 (second compound 10 µM): 1460 nM
viability, T/C [1]: 103%
viability, T/C [2]: 84.7%
viability, T/C [3]: 112%
viability, T/C [4]: 79.3%
viability, T/C [5]: 86.7%
viability, T/C [6]: 17.7%
viability, T/C [7]: 103%
viability, T/C [8]: 73.7%
viability, T/C [9]: 90.4%
viability, T/C [10]: 72%
viability, T/C [11]: 83.5%
viability, T/C [12]: 16.2%
viability, T/C [13]: 86.2%
viability, T/C [14]: 99.7%
viability, T/C [15]: 98%
viability, T/C [16]: 80.5%
viability, T/C [17]: 82.3%
viability, T/C [18]: 15.1%
viability, T/C [19]: 57.9%
viability, T/C [20]: 97.9%
viability, T/C [21]: 88%
viability, T/C [22]: 89.3%
viability, T/C [23]: 77.7%
viability, T/C [24]: 13.2%
viability, T/C [25]: 78.1%
viability, T/C [26]: 88.7%
viability, T/C [27]: 82.4%
viability, T/C [28]: 96.2%
viability, T/C [29]: 67.4%
viability, T/C [30]: 9.77%
viability, T/C [31]: 53.1%
viability, T/C [32]: 59.3%
viability, T/C [33]: 60.7%
viability, T/C [34]: 67.9%
viability, T/C [35]: 29.2%
viability, T/C [36]: 3.73%
